{"source": "patent US8158559B2", "about": "“Herbicidal combination comprising dimethoxytriazinyl-substituted difluoromethanesulfonylanilides” (Bayer Cropscience AG, priority 2008, dated 2012)", "assay_in_all_cases": "Post-emergence action against weeds, greenhouse pot test, visual scoring", "type_in_all_cases": "in vivo", "key": {"[1]": {"tested_on": "Matricaria inodora (MATIN)", "conditions": "Tripleurospermum inodorum, 504 h, read-out: % activity found", "description": "(§1) Seeds or rhizome pieces of mono- and dicotyledonous harmful and useful plants were placed in peat pots (diameter 4 cm) filled with sandy loam and then covered with soil. The pots were kept in a greenhouse under optimum conditions. In addition, harmful plants encountered in paddy rice cultivation were cultivated in pots with a water level 2 cm above the soil surface.\n(§2) About three weeks after the start of the cultivation, the test plants were treated at the 2- to 3-leaf stage. The herbicides, formulated as powder or liquid concentrates, were, either alone or in the combinations according to the invention, sprayed in various dosages on to the green parts of the plants using an application rate of 600 l of water/ha (converted). For further cultivation of the plants, the pots were then again kept under optimum conditions in a greenhouse.\n(§3) The visual scoring of the herbicidal effects was carried out in intervals up to 21 days after the treatment. Scoring was carried out in percent in comparison to the untreated control plants. 0%=no herbicidal activity, 100%=complete herbicidal activity=complete kill.\n(§4) The percentages from the treatments with the herbicides alone (=individual application) and with the combinations according to the invention (=mixtures) were employed to calculate interactions using the method of Colby. When the observed efficacies of the mixtures exceed the formal sum of the values of the tests with individual applications, they also exceed the expected value according to Colby, which is calculated using the formula below (cf. S. R. Colby; in Weeds 15 (1967) pp. 20 to 22): E=A+B−(A×B/100)\n(§5) Here: • A, B=activity of components A and B in percent at a dosage of a and b g of ai/ha (=gramm of active substance per hectare), respectively. • E=expected value in % at a dosage of a+b g of ai/ha. Results\n(§6) The combinations according to the invention of herbicides from group (A) with herbicides from group (B) were tested on a broad spectrum of important harmful plants (weed grasses, broad-leaved weeds/Cyperaceae) and useful plants: Triticum aestivum (TRZAS), Stellaria media (STEME), Lolium multiflorum (LOLMU), Veronica persica (VERPE), Alopecurus myosuroides (ALOMY), Matricaria inodora (MATIN), Brassica napus (BRSNW), Viola tricolor (VIOTR), Avena fatua (AVEFA), Amaranthus retroflexus (AMARE), Zea mays (ZEAMX), Pharbitis purpurea (PHBPU), Setaria viridis (SETVI), Fallopia (ex Polygonum) convolvulus (POLCO), Echinochloa crus-galli (ECHCG), Abuthilon theophrasti (ABUTH), Cyperus esculentus (CYPES), Oryza sativa (ORYSA).\n(§7) Of particular interest are the results shown in the tables (Tab.) below, where the following key is used: • (1) EPPO code (former Bayer code) for the treated plant (see above) • (2) Time of scoring: DAT (days after treatment) • (3) Component A tested (identifying number) • (4) Component B tested (identifying number) • (5) Dosage component A [g of ai/ha] • (6) Dosage component B [g of ai/ha] • (7) % activity found • (8) E value (calculated according to Colby; see above) • (9) Comments: “SYNERGY”=synergistic interaction (E value<% activity found); “SAFENING”=safener action on useful plant (E value>% activity found)"}, "Zea mays (ZEAMX)": {"tested_on": "Zea mays (ZEAMX)", "conditions": "read-out: % activity found; for inhibition at 4 g/ha: dosage 4 g of ai/ha", "description": "as §1, §2, §3, §4, §5, §6, §7"}, "[2]": {"tested_on": "Lolium multiflorum (LOLMU)", "conditions": "read-out: % activity found; for inhibition at 4 g/ha: dosage 4 g of ai/ha", "description": "as §1, §2, §3, §4, §5, §6, §7"}, "Avena fatua (AVEFA)": {"tested_on": "Avena fatua (AVEFA)", "conditions": "504 h, read-out: % activity found", "description": "as §1, §2, §3, §4, §5, §6, §7"}, "Viola tricolor (VIOTR)": {"tested_on": "Viola tricolor (VIOTR)", "conditions": "240 h, read-out: % activity found", "description": "as §1, §2, §3, §4, §5, §6, §7"}, "[3]": {"tested_on": "Triticum aestivum (TRZAS)", "conditions": "read-out: % activity found; for inhibition at 12 g/ha: dosage 12 g of ai/ha", "description": "as §1, §2, §3, §4, §5, §6, §7"}, "Oryza sativa (ORYSA)": {"tested_on": "Oryza sativa (ORYSA)", "conditions": "read-out: % activity found; for inhibition at 4 g/ha: dosage 4 g of ai/ha; for inhibition at 12 g/ha: dosage 12 g of ai/ha", "description": "as §1, §2, §3, §4, §5, §6, §7"}, "[4]": {"tested_on": "Cyperus esculentus (CYPES)", "conditions": "504 h, read-out: % activity found", "description": "as §1, §2, §3, §4, §5, §6, §7"}, "[5]": {"conditions": "240 h, 10 DAT, dosage 12 g of ai/ha"}, "[6]": {"conditions": "504 h, 21 DAT, dosage 12 g of ai/ha"}}, "note": "Read-outs that look alike come from different tables or passages of the source."}
{"smiles": "COc1nc(OC)nc(C(=O)c2cccc(F)c2N(C)S(=O)(=O)C(F)F)n1", "note": "[A-1]", "values": [{"measurement": "inhibition at 4 g/ha", "setting": "[1]; 21 DAT, dosage 4 g of ai/ha", "result": 50, "unit": "%"}, {"measurement": "inhibition at 4 g/ha", "setting": "Zea mays (ZEAMX); 240 h, 10 DAT", "result": 0, "unit": "%"}, {"measurement": "inhibition at 12 g/ha", "setting": "Zea mays (ZEAMX); [5]", "result": 0, "unit": "%"}, {"measurement": "inhibition at 4 g/ha", "setting": "Zea mays (ZEAMX); 504 h, 21 DAT", "result": 0, "unit": "%"}, {"measurement": "inhibition at 12 g/ha", "setting": "Zea mays (ZEAMX); [6]", "result": 0, "unit": "%"}, {"measurement": "inhibition at 4 g/ha", "setting": "[2]; 240 h, 10 DAT", "result": 0, "unit": "%"}, {"measurement": "inhibition at 12 g/ha", "setting": "[2]; [5]", "result": 10, "unit": "%"}, {"measurement": "inhibition at 4 g/ha", "setting": "[2]; 504 h, 21 DAT", "result": 0, "unit": "%"}, {"measurement": "inhibition at 12 g/ha", "setting": "[2]; [6]", "result": 10, "unit": "%"}, {"measurement": "inhibition at 4 g/ha", "setting": "Avena fatua (AVEFA); 21 DAT, dosage 4 g of ai/ha", "result": 10, "unit": "%"}, {"measurement": "inhibition at 12 g/ha", "setting": "Avena fatua (AVEFA); 21 DAT, dosage 12 g of ai/ha", "result": 30, "unit": "%"}, {"measurement": "inhibition at 4 g/ha", "setting": "Viola tricolor (VIOTR); 10 DAT, dosage 4 g of ai/ha", "result": 20, "unit": "%"}, {"measurement": "inhibition at 12 g/ha", "setting": "Viola tricolor (VIOTR); 10 DAT, dosage 12 g of ai/ha", "result": 20, "unit": "%"}, {"measurement": "inhibition at 4 g/ha", "setting": "[3]; 240 h, 10 DAT, dosage 4 g of ai/ha", "result": 0, "unit": "%"}, {"measurement": "inhibition at 12 g/ha", "setting": "[3]; 240 h, 10 DAT", "result": 0, "unit": "%"}, {"measurement": "inhibition at 12 g/ha", "setting": "[3]; 504 h, 21 DAT", "result": 0, "unit": "%"}, {"measurement": "inhibition at 4 g/ha", "setting": "Oryza sativa (ORYSA); 240 h, 10 DAT", "result": 10, "unit": "%"}, {"measurement": "inhibition at 12 g/ha", "setting": "Oryza sativa (ORYSA); 240 h, 10 DAT", "result": 10, "unit": "%"}, {"measurement": "inhibition at 4 g/ha", "setting": "Oryza sativa (ORYSA); 504 h, 21 DAT", "result": 0, "unit": "%"}, {"measurement": "inhibition at 12 g/ha", "setting": "Oryza sativa (ORYSA); 504 h, 21 DAT", "result": 10, "unit": "%"}, {"measurement": "inhibition at 4 g/ha", "setting": "[4]; 21 DAT, dosage 4 g of ai/ha", "result": 80, "unit": "%"}]}
{"smiles": "COc1cc(OC)nc(Oc2cccc(Oc3nc(OC)cc(OC)n3)c2C(=O)O)n1", "note": "[B2-1, sodium 2,6-bis[(4,6-dimethoxy-2-pyrimidinyl)oxy]benzoate, reference compound]", "values": [{"measurement": "inhibition at 12 g/ha", "setting": "Zea mays (ZEAMX); 240 h", "result": 40, "unit": "%"}, {"measurement": "inhibition at 36 g/ha", "setting": "Zea mays (ZEAMX); 240 h", "result": 40, "unit": "%"}, {"measurement": "inhibition at 12 g/ha", "setting": "Zea mays (ZEAMX); 504 h", "result": 0, "unit": "%"}, {"measurement": "inhibition at 36 g/ha", "setting": "Zea mays (ZEAMX); 504 h", "result": 0, "unit": "%"}, {"measurement": "inhibition at 12 g/ha", "setting": "[2]; 240 h", "result": 40, "unit": "%"}, {"measurement": "inhibition at 12 g/ha", "setting": "[2]; 504 h", "result": 20, "unit": "%"}, {"measurement": "inhibition at 36 g/ha", "setting": "[2]; 504 h", "result": 70, "unit": "%"}, {"measurement": "inhibition at 36 g/ha", "setting": "Oryza sativa (ORYSA); 504 h", "result": 70, "unit": "%"}]}
{"smiles": "CCOC(=O)COc1ncccc1Oc1cc(-n2c(=O)cc(C(F)(F)F)n(C)c2=O)c(F)cc1Cl", "note": "[B4-6, ethyl [[3-[2-chloro-5-[3,6-dihydro-3-methyl-2,6-dioxo-4-(trifluoromethyl)-1(2H)-pyrimidinyl]-4-fluorophenoxy]-2-pyridinyl]oxy]acetate, reference compound]", "values": [{"measurement": "inhibition at 9 g/ha", "setting": "[1]", "result": 80, "unit": "%"}, {"measurement": "inhibition at 3 g/ha", "setting": "Zea mays (ZEAMX); 240 h", "result": 40, "unit": "%"}, {"measurement": "inhibition at 3 g/ha", "setting": "Zea mays (ZEAMX); 504 h", "result": 30, "unit": "%"}, {"measurement": "inhibition at 3 g/ha", "setting": "Avena fatua (AVEFA)", "result": 0, "unit": "%"}, {"measurement": "inhibition at 3 g/ha", "setting": "Viola tricolor (VIOTR)", "result": 10, "unit": "%"}, {"measurement": "inhibition at 9 g/ha", "setting": "Viola tricolor (VIOTR)", "result": 85, "unit": "%"}, {"measurement": "inhibition at 9 g/ha", "setting": "[3]; 240 h", "result": 50, "unit": "%"}, {"measurement": "inhibition at 3 g/ha", "setting": "[3]; 504 h", "result": 30, "unit": "%"}, {"measurement": "inhibition at 3 g/ha", "setting": "Oryza sativa (ORYSA); 240 h", "result": 40, "unit": "%"}, {"measurement": "inhibition at 9 g/ha", "setting": "Oryza sativa (ORYSA); 240 h", "result": 40, "unit": "%"}, {"measurement": "inhibition at 9 g/ha", "setting": "[4]", "result": 20, "unit": "%"}]}
